In ChEMBL document CHEMBL1201862, “PubChem BioAssay data set” (2004):
Activity calls are given as the source filed them.

Columns and labels:
[1] = system: Escherichia coli; assay: microbe, parasite or virus in culture
[2] = system: Streptococcus sp. 'group A'; assay: growth inhibition of control SK(-) GAS strain, dose response, counter-screen for streptokinase expression inhibitor project, luminescence, kanamycin, BacTiterGlo, confirmation (AID 1900); assay type: functional, organism-based
[3] = system: BJ; assay: cytotoxicity toward BJ-TERT fibroblasts, dose response, cell-based, RAS-independent, luminescence (AID 1933); assay type: functional; details: Homo sapiens
[4] = system: BJ; assay: cells; assay type: functional, cell-based; details: Homo sapiens
[5] = microbe, parasite or virus in culture; assay type: functional; details: Mycobacterium tuberculosis
[6] = system: BJ; assay: cytotoxicity toward BJ-TERT-LT-ST fibroblasts, dose response, cell-based, RAS-independent, luminescence (AID 1935); assay type: functional; details: Homo sapiens;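 note: BJ fibroblasts immortalized with TERT plus LT and ST oncogenes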
[7] = cytotoxicity toward DRD oncogenic fibroblasts, dose response, cell-based, non-viral oncogenic, luminescence (AID 1934); assay type: functional; details: Homo sapiens
[8] = system: Streptococcus; assay: Group A Streptococcus viability loss, dose response, counter-screen for streptokinase expression inhibitor project, luminescence, BacTiterGlo (AID 1915); assay type: functional, organism-based;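 note: potency for reduction of bacterial viability or growth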
[9] = system: BJ; assay: cytotoxicity toward Ras-transformed BJeLR fibroblasts, dose response, cell-based, alamar blue fluorescence, cherrypicked samples (AID 2631); assay type: functional; details: Homo sapiens;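 note: confirmatory dose-response assay in RAS-dependent BJ fibroblasts engineered with TERT, LT and ST, with cytotoxicity read by fluorescence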
[10] = inhibitors of firefly luciferase expression or activity, dose response, H4 neuroglioma cells, luminescence (AID 1990); assay type: functional, cell-based
[11] = Luminescence Cell-Based Dose Response HTS to Identify Inhibitors of 5'UTR Stem-Loop Driven Prion Protein mRNA Translation in H4 Neuroglioblastoma Cells. [Related pubchem assays: 1827 (Project Summary), 1813 (Primary HTS)]; assay type: functional
[12] = inhibitors of SNCA 5'UTR-driven reporter translation, confirmation, H4 neuroglioma cells, luminescence (AID 1988); assay type: functional, cell-based
[13] = biological target: T1, Cysteine protease ATG4B (Homo sapiens, UniProt Q9Y4P1); assay type: functional;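 note: Fluorescence-based dose-response confirmation assay measuring inhibition of ATG4B activity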
T1 sequence (Q9Y4P1 whole entry): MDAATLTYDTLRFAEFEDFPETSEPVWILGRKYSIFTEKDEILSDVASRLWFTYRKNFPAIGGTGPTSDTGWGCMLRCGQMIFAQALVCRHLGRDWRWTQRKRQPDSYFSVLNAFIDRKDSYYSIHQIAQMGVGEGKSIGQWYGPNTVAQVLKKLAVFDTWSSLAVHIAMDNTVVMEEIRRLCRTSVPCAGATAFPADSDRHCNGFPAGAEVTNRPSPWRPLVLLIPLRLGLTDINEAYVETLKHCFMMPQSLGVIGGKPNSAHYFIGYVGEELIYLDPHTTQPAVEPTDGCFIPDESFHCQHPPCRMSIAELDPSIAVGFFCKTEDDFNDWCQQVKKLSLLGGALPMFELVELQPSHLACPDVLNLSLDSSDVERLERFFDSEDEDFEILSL

[14] = biological target: Phospholipase A2 (Homo sapiens, UniProt P04054); assay type: functional;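 note: confirmatory dose-response counterscreen on phospholipase A2, testing hits that came from an ultra-high-throughput screen for ATG4B inhibitors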
[15] = biological target: T2, Protein Tat (Human immunodeficiency virus type 1 group M subtype B (isolate HXB2)(HIV-1), UniProt P04608); assay type: functional;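 note: tat binding to TAR RNA read out by fluorescence polarization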
T2 sequence (P04608 whole entry): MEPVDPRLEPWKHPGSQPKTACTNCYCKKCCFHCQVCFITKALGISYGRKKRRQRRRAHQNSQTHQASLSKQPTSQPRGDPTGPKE

[16] = inhibitors of Vif binding to APOBEC3G peptide, primary screen, biochemical, TR-FRET, GST-Vif 1-94, biotin-A3G peptide, dose response retest (AID 1117319); assay type: functional;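 note: TR-FRET signal of purified GST-Vif binding a biotinylated A3G peptide; inhibitors lower the FRET signal by blocking Vif and A3G binding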
[17] = system: HEK293; assay: cells; assay type: functional, cell-based; details: Homo sapiens
[18] = biological target: T3, Nuclear receptor subfamily 0 group B member 1 (Homo sapiens, UniProt P51843); assay: Luminescence-based cell-based high throughput dose response assay for inhibitors of the orphan nuclear receptor subfamily 0, group B, member 1 (DAX1; NR0B1). [Related pubchem assays (depositor defined):AID504766, AID504790]; assay type: functional
T3 sequence (P51843 whole entry): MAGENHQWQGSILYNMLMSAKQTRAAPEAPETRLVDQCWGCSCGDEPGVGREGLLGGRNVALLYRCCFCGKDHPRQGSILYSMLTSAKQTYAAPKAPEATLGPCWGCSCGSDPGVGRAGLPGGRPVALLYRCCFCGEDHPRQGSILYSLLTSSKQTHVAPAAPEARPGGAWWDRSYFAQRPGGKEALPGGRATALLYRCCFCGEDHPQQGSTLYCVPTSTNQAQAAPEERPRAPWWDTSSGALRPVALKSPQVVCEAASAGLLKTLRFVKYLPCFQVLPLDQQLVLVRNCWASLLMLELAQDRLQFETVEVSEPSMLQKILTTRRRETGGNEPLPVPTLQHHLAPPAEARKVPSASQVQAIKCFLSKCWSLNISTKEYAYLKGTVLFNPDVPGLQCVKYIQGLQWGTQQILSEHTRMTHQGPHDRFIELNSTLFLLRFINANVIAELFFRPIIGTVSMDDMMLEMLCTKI

[19] = system: CHO; assay: cytotoxicity in TLR9-MyD88 CHO cells, dose response, cytotoxicity control for TLR9-MyD88 binding inhibitor project, cell-based, luminescence (AID 588339); assay type: functional, hamster; details: Cricetulus griseus;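 note: CHO cells stably coexpressing TLR9 and MyD88 fusions from primary screen; compound exposure lasted 48 hours before viability readout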
[20] = system: HEK293; assay: NOD1 signaling inhibitors, primary screen, cell-based, luminescence, uHTS (AID 1578); assay type: functional; details: Homo sapiens
[21] = system: HEK293; assay: cells; assay type: functional, cell-based; details: Homo sapiens; remark: listed apart in the source
[22] = system: HEK293; assay: cells; assay type: functional, cell-based; details: Homo sapiens; remark: listed apart in the source
[23] = biological target: Nucleotide-binding oligomerization domain-containing protein 2 (Homo sapiens, UniProt Q9HC29); assay: NOD2 signaling inhibitors, cell-based, luminescence, uHTS, HEK293 (AID 1566); assay type: functional
[24] = system: HEK293; assay: NOD2 signaling inhibitors in MDP-stimulated cells, cell-based, uHTS, luminescence (AID 2001); assay type: functional; details: Homo sapiens
[25] = inhibitors of intracellular T. cruzi replication, confirmation, NIH3T3 host cells, beta-gal luminescence (AID 2044); assay type: functional, cell-based;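 note: intracellular parasites grown in NIH/3T3 mouse fibroblasts as host cells; luminescent beta-galactosidase reporter signal from transgenic T. cruzi replicating inside host cells; inhibitors lower the luminescence signal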
[26] = system: HEK293; assay: cells; assay type: functional, cell-based; details: Homo sapiens; remark: listed apart in the source
[27] = biological target: Induced myeloid leukemia cell differentiation protein Mcl-1 (Homo sapiens, UniProt Q07820); assay type: functional
[28] = biological target: T4, Corticotropin-releasing factor receptor 2/Corticotropin-releasing factor-binding protein (Homo sapiens, UniProt P24387+Q13324); assay: Dose Response confirmation of uHTS hits for small molecule antagonists of the CRF-binding protein and CRF-R2 receptor complex.; assay type: functional; details: read-out: IC50_Mean
T4 sequence (Q13324 whole entry): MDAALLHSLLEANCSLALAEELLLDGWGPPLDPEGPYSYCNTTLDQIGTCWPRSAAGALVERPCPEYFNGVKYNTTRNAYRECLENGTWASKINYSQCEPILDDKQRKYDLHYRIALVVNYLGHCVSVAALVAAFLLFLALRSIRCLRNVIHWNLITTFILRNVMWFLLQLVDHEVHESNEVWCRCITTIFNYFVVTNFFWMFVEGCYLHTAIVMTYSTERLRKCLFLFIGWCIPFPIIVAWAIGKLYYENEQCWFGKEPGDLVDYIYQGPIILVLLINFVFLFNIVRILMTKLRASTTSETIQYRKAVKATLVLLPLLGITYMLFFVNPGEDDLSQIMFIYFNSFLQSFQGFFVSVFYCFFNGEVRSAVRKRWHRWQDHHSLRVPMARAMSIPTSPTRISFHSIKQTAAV
T4 sequence (P24387 whole entry): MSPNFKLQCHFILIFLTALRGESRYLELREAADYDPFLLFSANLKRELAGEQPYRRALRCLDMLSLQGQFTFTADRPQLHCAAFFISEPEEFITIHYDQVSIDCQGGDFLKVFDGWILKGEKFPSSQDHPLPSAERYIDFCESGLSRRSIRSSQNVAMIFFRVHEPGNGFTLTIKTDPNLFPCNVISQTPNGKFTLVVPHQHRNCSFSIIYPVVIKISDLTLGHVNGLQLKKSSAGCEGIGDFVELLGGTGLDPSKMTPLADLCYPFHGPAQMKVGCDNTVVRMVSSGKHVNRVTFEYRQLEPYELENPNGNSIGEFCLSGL

[29] = biological target: T4, Corticotropin-releasing factor receptor 2/Corticotropin-releasing factor-binding protein; assay: activators of CRF receptor 2 with binding protein – uHTS hits, confirmation (AID 602473); assay type: functional; details: read-out: EC50_Mean
[30] = CRF-BP/CRF-R2 complex antagonists, dose response, cell-based, uHTS hits, 384-well (AID 651639); assay type: functional, Homo sapiens; details: read-out: IC50_Mean
[31] = HeLa cell cytotoxicity, dose response, cytotoxicity control for MgcRacGAP inhibitor project (AID 624300); assay type: functional
[32] = biological target: T5, Rac GTPase-activating protein 1 (Homo sapiens, UniProt Q9H0H5); assay: MgcRacGAP GTPase-activating activity inhibitors, confirmation, biochemical, ADP Hunter fluorescence, primary and confirmatory (AID 624330); assay type: functional
T5 sequence (Q9H0H5 whole entry): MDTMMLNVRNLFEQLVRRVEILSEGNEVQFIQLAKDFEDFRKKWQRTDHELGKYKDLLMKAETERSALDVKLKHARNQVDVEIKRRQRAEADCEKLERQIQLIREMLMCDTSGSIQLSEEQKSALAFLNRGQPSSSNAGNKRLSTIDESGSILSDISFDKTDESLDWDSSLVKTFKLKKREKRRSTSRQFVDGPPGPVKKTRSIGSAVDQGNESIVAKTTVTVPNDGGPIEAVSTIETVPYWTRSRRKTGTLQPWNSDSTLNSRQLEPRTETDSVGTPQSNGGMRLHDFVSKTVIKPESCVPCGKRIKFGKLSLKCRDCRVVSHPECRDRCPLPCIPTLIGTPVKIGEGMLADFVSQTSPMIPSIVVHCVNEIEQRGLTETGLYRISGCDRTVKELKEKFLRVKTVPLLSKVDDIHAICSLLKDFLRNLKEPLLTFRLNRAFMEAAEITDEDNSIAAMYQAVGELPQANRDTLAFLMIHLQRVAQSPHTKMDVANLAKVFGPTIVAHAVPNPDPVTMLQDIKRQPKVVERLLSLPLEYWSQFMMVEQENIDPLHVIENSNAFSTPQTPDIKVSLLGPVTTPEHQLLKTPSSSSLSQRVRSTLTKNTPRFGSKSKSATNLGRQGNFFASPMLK

Nucleotide-binding oligomerization domain-containing protein 2, sequence (Q9HC29 whole entry, the tested form may be a part): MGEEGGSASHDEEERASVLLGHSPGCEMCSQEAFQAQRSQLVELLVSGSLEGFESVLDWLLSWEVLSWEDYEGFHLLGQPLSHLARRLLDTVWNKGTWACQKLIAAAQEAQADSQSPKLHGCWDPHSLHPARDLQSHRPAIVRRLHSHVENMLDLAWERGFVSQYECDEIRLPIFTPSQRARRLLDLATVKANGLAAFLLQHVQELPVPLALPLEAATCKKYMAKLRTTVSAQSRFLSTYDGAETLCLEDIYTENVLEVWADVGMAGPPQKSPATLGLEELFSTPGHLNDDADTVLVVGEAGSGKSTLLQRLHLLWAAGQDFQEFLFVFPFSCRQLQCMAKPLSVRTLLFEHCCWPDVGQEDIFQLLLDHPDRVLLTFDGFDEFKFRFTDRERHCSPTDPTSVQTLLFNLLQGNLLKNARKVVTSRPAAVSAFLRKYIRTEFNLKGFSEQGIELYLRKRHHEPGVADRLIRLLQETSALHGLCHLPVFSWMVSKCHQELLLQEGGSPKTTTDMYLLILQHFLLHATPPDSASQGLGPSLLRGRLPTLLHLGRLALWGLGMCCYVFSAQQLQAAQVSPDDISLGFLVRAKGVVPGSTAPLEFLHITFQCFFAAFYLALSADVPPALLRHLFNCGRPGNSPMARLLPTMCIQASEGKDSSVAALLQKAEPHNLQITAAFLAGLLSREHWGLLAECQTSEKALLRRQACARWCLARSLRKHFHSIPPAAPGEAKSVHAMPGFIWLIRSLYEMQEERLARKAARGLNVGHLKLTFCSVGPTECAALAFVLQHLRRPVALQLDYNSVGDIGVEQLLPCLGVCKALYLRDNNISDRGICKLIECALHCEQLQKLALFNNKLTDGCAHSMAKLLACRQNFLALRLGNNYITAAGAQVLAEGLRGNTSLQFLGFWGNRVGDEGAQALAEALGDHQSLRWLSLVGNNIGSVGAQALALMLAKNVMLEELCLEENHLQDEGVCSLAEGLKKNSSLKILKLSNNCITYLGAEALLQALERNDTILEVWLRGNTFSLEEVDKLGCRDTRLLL
Phospholipase A2, sequence (P04054 whole entry): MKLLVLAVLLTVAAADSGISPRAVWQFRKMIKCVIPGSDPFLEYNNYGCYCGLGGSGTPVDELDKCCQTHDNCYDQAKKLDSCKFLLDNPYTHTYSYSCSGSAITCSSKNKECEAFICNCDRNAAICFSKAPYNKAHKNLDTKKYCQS
Induced myeloid leukemia cell differentiation protein Mcl-1, sequence (Q07820 whole entry): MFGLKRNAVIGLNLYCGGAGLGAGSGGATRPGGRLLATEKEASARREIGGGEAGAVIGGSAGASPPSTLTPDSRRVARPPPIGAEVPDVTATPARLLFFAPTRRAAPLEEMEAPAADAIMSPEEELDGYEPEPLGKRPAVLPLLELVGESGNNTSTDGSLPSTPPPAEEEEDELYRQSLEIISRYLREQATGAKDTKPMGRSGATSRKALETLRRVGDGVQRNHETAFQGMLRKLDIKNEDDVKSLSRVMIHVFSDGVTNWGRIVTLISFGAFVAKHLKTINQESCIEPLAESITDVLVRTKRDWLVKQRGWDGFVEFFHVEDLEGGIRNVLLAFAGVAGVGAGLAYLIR

## O=C(Nc1cc(S(=O)(=O)N2CCOCC2)ccc1N1CCCC1)c1ccc(Cl)cc1
[1]
  AC50: 25.2 µM (active)

## Cc1nc(N)nc(N)c1CCCc1ccc(Cl)c(Cl)c1
[2]
  EC50: 1.03 µM (active)
[3]
  EC50: 17 µM (active)
[4]
  EC50: 1.36 µM (active)
[5]
  CC50: 4.07 µM (active)
[6]
  EC50: > 150 µM (not active)
[7]
  EC50: 3.05 µM (active)
[8]
  EC50: 4.01 µM (active)
[9]
  EC50: > 133 µM (inactive)

## COc1ccc(-c2ccc(C#N)c(SCC(=O)Nc3sc4c(c3C#N)CCC4)n2)cc1OC
[10]
  EC50: 13.9 µM (active)
[11]
  EC50: > 120 µM (not active)
[12]
  EC50: 11.1 µM (active)
[13]
  IC50: 5.44 µM (active)
[14]
  IC50: 4.06 µM (active)
[15]
  IC50: > 100 µM (active)
[16]
  IC50: > 100 µM (active)

## O=C(CCc1ccccc1)NC(=S)Nc1ccccc1Br
[17]
  IC50: > 67.5 µM (inactive)
[18]
  IC50: > 67.5 µM (inactive)

## CCCCNC(=O)COC(=O)c1c2c(nc3ccccc13)/C(=C/c1cccs1)CC2
[19]
  IC50: > 49.7 µM (inactive)

## Nc1nn(-c2ccccc2)c(N)c1N=Nc1ccc2c(c1)OCO2
[13]
  IC50: 15.9 µM (active)
[14]
  IC50: 10.4 µM (active)

## O=C(/C=C\c1ccco1)Nc1cc([N+](=O)[O-])ccc1F
[3]
  EC50: 1.44 µM (active)
[4]
  EC50: 2.06 µM (active)
[6]
  EC50: 0.821 µM (active)
[7]
  EC50: 1.17 µM (active)
[9]
  EC50: 0.42 µM (active)

## O=C(COC(=O)CN1C(=O)NC2(CCCC2)C1=O)Nc1ccccc1C(F)(F)F
[17]
  IC50: > 67.5 µM (inactive)
[18]
  IC50: > 67.5 µM (inactive)

## O=S(=O)(NCc1ccc2c(c1)OCO2)c1ccc(F)cc1
[17]
  IC50: > 67.6 µM (inactive)
[18]
  IC50: > 67.6 µM (inactive)

## O=[N+]([O-])c1ccc(/C=N/NC(=S)Nc2ccc(Cl)cc2Cl)s1
[20]
  EC50: 6.09 µM (active)
[2]
  EC50: 2.38 µM (active)
[21]
  IC50: 11.4 µM (active)
[22]
  IC50: 17.3 µM (active)
[23]
  EC50: > 20 µM (inactive)
[24]
  IC50: 7.77 µM (inactive)
[25]
  EC50: 0.651 µM (active)
[26]
  IC50: > 20 µM (inactive)
[27]
  IC50: 4.67 µM (active)
[8]
  EC50: 2.56 µM (active)

## Cc1[nH]n(-c2cccc(Cl)c2)c(=O)c1-c1ccc(Cl)cc1
[20]
  EC50: 2.43 µM (active)
[21]
  IC50: 14.2 µM (active)
[22]
  IC50: > 20 µM (inactive)
[23]
  EC50: 12.8 µM (active)
[24]
  IC50: 9.97 µM (inactive)
[26]
  IC50: > 20 µM (inactive)
[28]
  IC50: 0.98 µM (active)
[29]
  EC50: > 53 µM (inactive)
[30]
  IC50: > 20 µM (inactive)
[31]
  CC50: 100 µM (active)
[32]
  IC50: 80 µM (active)
